# Data published in patent publication US20050256302A1, “Novel peptides having camp producing activity” (Japan Science and Technology Agency, priority 2002, published 2005).
# Where a SMILES comes first, the peptide text is derived from it. Bridges are numbered along the chain shown (N, C = ends).
# Legend:
# [1] = system: LLC-PK1 cells; experiment: cAMP production in LLC-PK1 cells (radioimmunoassay); format: cell-based, pig; details: ratio of ED50
# Experimental: CRSP dissolved in DMEM was added to a medium for LLC-PK1 cells and amount of cAMP secreted therefrom was quantified by means of radioimmunoassay using a cAMP-specific antibody.
# LLC-PK1 cells were incubated in a culture medium (a Dulbecco-modified Eagle medium (DMEM) containing 10% of fetal calf serum (FCS)), CRSP dissolved in DMEM containing 0.05% of bovine serum albumin was substituted for a culture medium for the cells after two days, incubation was conducted for 30 minutes, the medium was recovered and amount of the secreted cAMP was quantified by radioimmunoassay using a cAMP-specific antibody.
# [2] = system: LLC-PK1 cells; experiment: Suppression of cell proliferation (125I-DU incorporation, cell count); format: cell-based, pig; details: 125I-DU incorporation and cell count
# Experimental: A solution of each peptide in DMEM in each concentration was added to LLC-PK1 cells, then DMEM (containing 0.1% BSA) which contained bromodeoxyuridine labeled with ^125I (^125I-DU) was added to each well and, after 5 hours, radioactivity incorporated into the nuclei was measured by a gamma-counter to measure the DNA amount synthesized as a result of cell proliferation.
# With regard to the number of proliferated cells, each solution of CRSP in DMEM in various concentrations was added to LLC-PK1 cells of 10,000 cells/well, incubation was conducted, the cells on the incubation dish was taken out by a trypsin-EDTA solution and cell numbers were counted using a counting plate.
# LLC-PK1 cells were incubated for two days in a DMEM (containing 10% of FCS) on a 24-well collagen plate, once washed with a DMEM and substituted with a DMEM (containing 10% of FCS) containing 0 and 10^−12 to 10^−6 M of CRSP followed by incubating. After 2 hours, a DMEM (containing 0.1% of BSA) containing ^125I-labeled bromodeoxyuridine was added to each well and, after 5 hours, radioactivity incorporated into the nuclei was measured by a gamma-counter whereupon the amount of DNA synthesized as a result of cell proliferation was measured.
# Similarly, LLC-PK1 cells of 10,000 cells/well were sown on a 24-well collagen plate and incubated with a DMEM (containing 10% of FCS) for 24 hours. […]
# [3] = target: T1, Pig calcitonin receptor (CTR) (Sus scrofa, UniProt P25117); experiment: cAMP production in opossum renal epithelial cells (OK cells) expressing CTR; format: cell-based; details: CTR expressed in OK cells
# T1 construct: expressed in transfected cells; host or cells: COS-7 (given as rhesus monkey renal cells), vector pcDNA 3.1
# T1 sequence (P25117 30-498): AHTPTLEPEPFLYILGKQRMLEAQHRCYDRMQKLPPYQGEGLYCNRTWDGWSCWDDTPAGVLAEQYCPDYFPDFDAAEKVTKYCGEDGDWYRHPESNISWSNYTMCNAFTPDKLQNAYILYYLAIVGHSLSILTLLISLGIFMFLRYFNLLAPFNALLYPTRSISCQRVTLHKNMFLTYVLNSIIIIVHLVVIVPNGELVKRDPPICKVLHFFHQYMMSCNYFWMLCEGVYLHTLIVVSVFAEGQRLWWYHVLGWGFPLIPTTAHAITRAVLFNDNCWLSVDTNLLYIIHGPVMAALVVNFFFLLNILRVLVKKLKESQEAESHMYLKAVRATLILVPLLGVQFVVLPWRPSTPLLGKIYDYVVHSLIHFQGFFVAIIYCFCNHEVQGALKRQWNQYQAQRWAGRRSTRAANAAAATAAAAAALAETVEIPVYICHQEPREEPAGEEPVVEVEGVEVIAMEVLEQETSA
# Experimental: (§1) Pig calcitonin receptor (CTR) was introduced into a mammalian expression vector pcDNA 3.1, expressed in rhesus monkey renal cells (COS-7) and production amount of cAMP by stimulation of CRSP was measured by radioimmunoassay. Similarly, CTR was expressed in opossum renal cells (OK cells) and production amount of cAMP by stimulation of CRSP was measured by radioimmunoassay while incorporation of sodium ion was measured by measuring the incorporation of sodium chloride having radioactivity (^22Na) by a gamma-counter. The results are shown in FIG. 10 (changes in cAMP productivity by CRSP stimulation in cells (COS-7) where calcitonin receptor was expressed in a genetic engineering manner), FIG. 11 (changes in cAMP productivity in opossum renal epithelial cells where pig calcitonin receptor (CTR) was expressed) and FIG. 12 (changes in incorporation of sodium ion in opossum renal epithelial cells where pig calcitonin receptor (CTR) was expressed).
# (§2) Similarly, CTR was expressed in opossum renal cells (OK cells) and production amount of cAMP by CRSP stimulation was measured by radioimmunoassay while incorporation of sodium ion was measured by incorporation of radioactive sodium chloride (^22Na) using a gamma-counter.
# [4] = target: T1, Pig calcitonin receptor (CTR); experiment: Incorporation of sodium ion (22Na) in OK cells expressing CTR; format: cell-based; details: CTR expressed in OK cells
# Experimental: as §1, §2
compound,measurement,setting,value
CSCC[C@H](NC(=O)[C@H](CCCCN)NC(=O)[C@@H](NC(=O)[C@@H]1CCCN1C(=O)[C@H](CC(C)C)NC(=O)[C@H](CC(C)C)NC(=O)[C@H](CC(N)=O)NC(=O)[C@H](CO)NC(=O)[C@H](CCCNC(=N)N)NC(=O)[C@@H](NC(=O)[C@H](CCSC)NC(=O)[C@H](CO)NC(=O)CNC(=O)[C@H](CO)NC(=O)[C@H](CCCNC(=N)N)NC(=O)[C@H](CO)NC(=O)[C@H](CC(C)C)NC(=O)[C@H](CC(C)C)NC(=O)CNC(=O)[C@@H](NC(=O)[C@H](CC(C)C)NC(=O)[C@H](CCCNC(=N)N)NC(=O)[C@H](Cc1c[nH]cn1)NC(=O)[C@@H](NC(=O)[C@H](CCSC)NC(=O)[C@@H]1CSSC[C@H](NC(=O)[C@@H](N)CO)C(=O)N[C@@H](CC(N)=O)C(=O)N[C@@H]([C@@H](C)O)C(=O)N[C@@H](C)C(=O)N[C@@H]([C@@H](C)O)C(=O)N1)[C@@H](C)O)C(C)C)C(C)C)[C@@H](C)O)C(=O)NCC(=O)N[C@@H](Cc1ccccc1)C(=O)N[C@@H](CCCCN)C(=O)N[C@H](C(=O)N[C@@H](Cc1ccccc1)C(=O)NCC(N)=O)C(C)C [CRSP] (H-SCNTATCMTHRLVGLLSRSGSMVRSNLLPTKMGFKVFG-NH2; disulfide 2-7),activity stronger than pig CGRP,[1],about 40 fold
same,activity stronger than pig calcitonin,[1],about 6 fold
same,growth of LLC-PK1 cells,[2],suppressing the growth of LLC-PK1 cells
same,intracellular adenylyl cyclase activity,[3],increases
same,amyloride-sensitive Na/H co-transporter,[4],activated
same,incorporation of sodium into cells,[4],promoted
